According to US10508118B2, “Pyrimidopyrrole compounds, method for preparing the same, pharmaceutical compositions comprising the same and uses thereof” (Xiamen University, priority 2015, dated 2019):
Read-outs that look alike come from different tables or passages of the source.

Legend:
Assay type in all cases: cell-based
[1] = biological target: T1, EML4-ALK-BaF3 (Homo sapiens, UniProt Q9UM73); assay: Growth inhibition of EML4-ALK transformed BaF3 cells (MTS); conditions: for IC50: EML4-ALK-BaF3 cells, 48 hours, MTS
T1 construct: expressed in transfected cells; host or cells: Ba/F3 cells; the other entry of the earlier key: EML4 (Q9HC35, Echinoderm microtubule-associated protein-like 4)
Procedure: (§1) If compounds can inhibit the activity of ALK kinase or the activity of ALK signaling pathway, they can inhibit the growth of ALK transformed Ba/F3 cells. […] The broad-spectrum toxicity of compounds can be evaluated by determining the effect of the compounds on the growth of wild type BaF3 cells.
(§2) 1) Medium: DMEM (Dulbecco's modified eagle medium) or RPMI1640 (containing 10% fetal bovine serum, 100 μg/mL ampicillin, 100 μg/mL streptomycin).)
(§3) Reagents: MTS solution (2 mg/mL MTS (3-(4,5-dimethylthiazol-2-yl)-5-(3-carboxymethoxyphenyl)-2-(4-sulfophenyl)-2H-tetrazolium, inner salt); 100 μg/mL PES ([…])).
(§4) 3) Test of compound: Transformed Ba/F3 cells (EML4-ALK-BaF3, EML4-ALK(L1196M)-BaF3, NPM-ALK-BaF3) (2×10^4/well) were distributed into 96-well plates, with volume of cell sap of 90 μL, 10 μL of compounds in gradient concentration (the highest concentration 10 was μM, followed by 1/3 step by step dilution, a total of 8 concentrations were set, the system contained 0.1% DMSO (dimethyl sulfoxide)). The cell plates mixed with compounds were cultured in a cell incubator (37° C.; 5% CO2) for 48 hours, and the added 20 μL of MTS reaction solution, mixed and incubated in cell incubator (37° C.; 5% CO2) for 1-4 hours. The OD value at a wavelength of 490 nm was measured using eliasa (VARIOSKAN FLASH, Thermo). Three parallels were set up for each group, with a final concentration of 0.1% DMSO as negative control, and with medium without cells and compounds as blank control.
(§5) 4) Calculation of IC50 value: the semi inhibitory concentration of the compound acting on the cells was calculated using GradPad Prism 5 software according to the cell inhibitory rate measured.

[2] = biological target: T2, EML4-ALK (L1196M)-BaF3 (Homo sapiens, UniProt Q9UM73, L1196M); assay: Growth inhibition of EML4-ALK (L1196M) transformed BaF3 cells (MTS); conditions: 48 hours
T2 construct: expressed in transfected cells; host or cells: Ba/F3 cells; the other entry of the earlier key: EML4 (Q9HC35, Echinoderm microtubule-associated protein-like 4)
Procedure: as §1, §2, §3, §4, §5

[3] = biological target: T3, NPM-ALK-BaF3 (Homo sapiens, UniProt Q9UM73); assay: Growth inhibition of NPM-ALK transformed BaF3 cells (MTS); conditions: 48 hours
T3 construct: expressed in transfected cells; host or cells: Ba/F3 cells; the other entry of the earlier key: NPM1 (P06748, Nucleophosmin)
Procedure: (§6) The activity of compounds against ALK kinase was evaluated by inhibiting the growth of cellular ALK kinase EML4-ALK-BaF3, EML4-ALK (L1196M)-BaF3, NPM-ALK-BaF3, and wild type BaF3 (Proc. Natl. Acad. Sci. USA., 2006, 103, 3153-8.) The growth of cellular ALK kinase EML4-ALK-BaF3, EML4-ALK(L1196M)-BaF3, and NPM-ALK-BaF3 depends on their kinase activity. If compounds can inhibit the activity of ALK kinase or the activity of ALK signaling pathway, they can inhibit the growth of ALK transformed Ba/F3 cells. […] The broad-spectrum toxicity of compounds can be evaluated by determining the effect of the compounds on the growth of wild type BaF3 cells.
as §2, §3
as §4, with “control. The inhibition rate of cell growth was calculated by the following formula: Cell inhibition rate %=1−(OD experimental group−OD blank group)/(OD negative group−OD blank group)*100%” for “control.”
as §5

[4] = test system: wild type BaF3; assay: Growth inhibition of wild type BaF3 cells (broad-spectrum toxicity); conditions: Mus musculus, BaF3, 48 h, MTS
Procedure: as §6, §2, §3
as §4, with “control. The inhibition rate of cell growth was calculated by the following formula: Cell inhibition rate %=1−(OD experimental group−OD blank group)/(OD negative group−OD blank group)*100%” for “control.”
as §5

[5] = Table 11, read-out: EML4-ALK (L1196M) (IC50 nM)
[6] = Table 12, read-out: L1196M (IC50 nM)

Row | Compound | IC50 ([1]; Table 11) | IC50 [2, 5] | IC50 ([3]; Table 11) | IC50 ([4]; Table 11) | IC50 ([1]; Table 12) | IC50 [2, 6] | IC50 ([3]; Table 12) | IC50 ([4]; Table 12) | targeting selectivity ([1]; ratio of IC50 between wild-type BaF3 and ALK transformed BaF3 cells)
1 | COC(=O)c1ccccc1Nc1nc(Nc2ccc(OCc3ccccn3)cc2)nc2cc[nH]c12 [IG-8] | 1830 nM | 1530 nM | 1670 nM | 3860 nM | – | – | – | – | –
2 | COc1cc(N2CCC(N3CCN(C)CC3)CC2)ccc1Nc1nc(Nc2ccccc2S(C)(=O)=O)c2c(ccn2C)n1 [IIC-2] | – | – | – | – | 1510 nM | ~3510 nM | ~3460 nM | 5050 nM | –
3 | CC(C)Sc1ccccc1CNc1nc(Nc2ccc(S(N)(=O)=O)cc2)nc2ccn(C)c12 [IIJ-3] | – | – | – | – | > 10000 nM | 9700 nM | > 10000 nM | > 10000 nM | –
4 | CC(C)S(=O)(=O)c1ccccc1CNc1nc(Nc2ccc(N3CCN(C)CC3)cc2)nc2ccn(C)c12 [IIL-5] | – | – | – | – | 1140 nM | 1530 nM | 848 nM | ~2760 nM | –
5 | CCOc1cc(C(=O)N2CCC(N3CCN(C)CC3)CC2)ccc1Nc1nc(Nc2ccccc2SC)c2c(ccn2C)n1 [IIA-5] | – | – | – | – | ~877 nM | ~883 nM | 519 nM | ~336 nM | –
6 | COC(=O)c1cccc(Nc2nc(Nc3ccc(N4CCN(C)CC4)cc3OC)nc3cc[nH]c23)c1 [II-1] | 1490 nM | ~2630 nM | 1640 nM | ~2710 nM | – | – | – | – | –
7 | COc1cc(N2CCC(N3CCN(C)CC3)CC2)ccc1Nc1nc(NCc2ccccc2S(=O)(=O)C(C)C)c2c(ccn2C)n1 [IIL-2] | – | – | – | – | 627 nM | 1420 nM | 1820 nM | 2620 nM | good targeting selectivity
8 | COC(=O)c1ccccc1Nc1nc(Nc2ccc(N3CCOCC3)cc2)nc2cc[nH]c12 [IG-5] | 7800 nM | > 10000 nM | > 10000 nM | > 10000 nM | – | – | – | – | –
9 | COc1cc(N2CCN(C)CC2)ccc1Nc1nc(Nc2ccccc2S(C)(=O)=O)c2[nH]ccc2n1 [IC-1] | 3930 nM | ~7250 nM | ~4560 nM | > 10000 nM | – | – | – | – | –
10 | COC(=O)c1ccccc1Oc1nc(Nc2ccc(S(N)(=O)=O)cc2)nc2ccn(C)c12 [IIN-4] | – | – | – | – | > 10000 nM | > 10000 nM | > 10000 nM | > 10000 nM | –
11 | CC(C)S(=O)(=O)c1ccccc1CNc1nc(Nc2ccc(S(N)(=O)=O)cc2)nc2cc[nH]c12 [IO-4] | > 10000 nM | > 10000 nM | > 10000 nM | > 10000 nM | – | – | – | – | –
12 | CCC(C)OC(=O)c1ccccc1Nc1nc(Nc2ccc(N3CCC(N4CCN(C)CC4)CC3)cc2OC)nc2cc[nH]c12 (stereo not drawn) [IH-3] | ~446 nM | 502 nM | ~859 nM | ~949 nM | – | – | – | – | –
13 | COc1cc(N2CCN(C)CC2)ccc1Nc1nc(Nc2ccccc2SC(C)C)c2c(ccn2C)n1 [IIB-1] | – | – | – | – | 1720 nM | ~2800 nM | ~2510 nM | 1930 nM | –
14 | COc1cc(N2CCC(N3CCN(C)CC3)CC2)ccc1Nc1nc(NCc2ccccc2S(C)(=O)=O)c2[nH]ccc2n1 [IN-2] | > 10000 nM | > 10000 nM | > 10000 nM | > 10000 nM | – | – | – | – | –
15 | COc1cc(N2CCN(C)CC2)ccc1Nc1nc(Nc2ccccc2SC(C)C)c2[nH]ccc2n1 [IB-1] | ~895 nM | ~2410 nM | 1450 nM | ~2800 nM | – | – | – | – | –
16 | CSc1ccccc1CNc1nc(Nc2ccc(N3CCC(O)CC3)cc2)nc2ccn(C)c12 [III-2] | – | – | – | – | > 10000 nM | > 10000 nM | > 10000 nM | > 10000 nM | –
17 | CCOc1cc(N2CCC(O)CC2)ccc1Nc1nc(Nc2ccccc2C(=O)OC)c2[nH]ccc2n1 [IG-10] | 9800 nM | > 10000 nM | 19600 nM | > 10000 nM | – | – | – | – | –
